Experiment [1] relates to IgE. The experiment in a line: IgE produced in in vitro culture of spleen cells from DNP-As immunized mice (ELISA). Type of experiment: cell-based, BALB/c mice. Conditions: Mus musculus, 96 h, spleen cell culture, 37° C., 4 days; for inhibition at 20 µg/mL: 20 μg/ml; for inhibition at 40 µg/mL: 40 μg/ml; for inhibition at 5 µg/mL: 5 μg/ml; for inhibition at 10 µg/mL: 10 μg/ml; for inhibition at 2.5 µg/mL: 2.5 μg/ml; for inhibition at 1 µg/mL: 1 μg/ml. How it is done: (§1) Determination of Igs Produced in In Vitro Culture
(§2) BALB/c mice were immunized intraperitoneally with 5 μg of DNP-As adsorbed on 4 mg aluminum hydroxide gel. Four weeks after the immunization, the spleens were excised from the mice and 5×10^7 spleen cells were transferred intravenously into the recipient mice which had been exposed to 600 rad of X-ray irradiation. Immediately after cell transfer, the recipients were then immunized intraperitoneally with 5 μg of DNP-As adsorbed on 4 mg aluminum hydroxide gel to induce adoptive secondary immune response. Further 4 weeks after the immunization of recipients, the spleens were excised from then and the spleen cell suspensions containing 5×10^6 cells/ml were cultured with or without a compound to be tested in 96-well micro-titer plates at 37° C. for 4 days. IgE and IgG secreted into the culture supernatant was each determined correspondingly by ELISA and the inhibitory effect was calculated according to the following equation. [formula]
(In an ELISA, binding on a coated surface is turned into a signal by an enzyme label.)

The subject of experiment [2] is IgG. The experiment is described as follows: IgG produced in in vitro culture of spleen cells from DNP-As immunized mice (ELISA). It counts as cell-based, BALB/c mice. The note with it: Mus musculus, 96 h, spleen cell culture, 37° C., 4 days; for inhibition at 20 µg/mL: 20 μg/ml; for inhibition at 40 µg/mL: 40 μg/ml; for inhibition at 5 µg/mL: 5 μg/ml; for inhibition at 10 µg/mL: 10 μg/ml; for inhibition at 2.5 µg/mL: 2.5 μg/ml; for inhibition at 1 µg/mL: 1 μg/ml. How it is done: as §1, §2

On to `CCOC(=O)c1c(-c2ccc(F)cc2)c(C#N)c(=O)n2ccccc12` [Compound S-12, 3-Cyano-1-ethoxycarbonyl-2-(4-fluorophenyl)-4H-quinolizin-4-one], for which the inhibition – broadly, the relative decrease from the control value, in per cent – at 20 µg/mL in experiment [1] is 50%; in experiment [2] it was 8%.
With `CCOC(=O)c1c(-c2ccc(O)cc2)c(C#N)c(=O)n2ccccc12` [Compound S-30, 3-Cyano-1-ethoxycarbonyl-2-(4-hydroxyphenyl)-4H-quinolizin-4-one], the inhibition at 40 µg/mL was 43% in experiment [1] and -20% in experiment [2].
With `CCOC(=O)c1c(-c2ccc(SC)cc2)c(C#N)c(=O)n2ccccc12` [Compound S-25, 3-Cyano-1-ethoxycarbonyl-2-(4-methylthiophenyl)-4H-quinolizin-4-one], the inhibition at 20 µg/mL was 61% in experiment [1] and -4% in experiment [2].
Regarding `CCOC(=O)c1c(-c2ccc(Br)cc2)c(C#N)c(=O)n2ccccc12` [Compound S-3, 2-(4-Bromophenyl)-3-cyano-ethoxycarbonyl-4H-quinolizin-4-one], the figures for the inhibition at 49 µg/mL in experiment [1] (49 μg/ml) and in experiment [2] (49 μg/ml) were 34% and 15%, respectively.
With `CCOC(=O)c1c(N2CCN(CCO)CC2)c(C#N)c(=O)n2ccccc12` [Compound S-39, 3-Cyano-1-ethoxycarbonyl-2-[4-(2-hydroxyethyl)-piperazin-1-yl]-4H-quinolizin-4-one], the inhibition at 40 µg/mL came to 63% in experiment [1] and 17% in experiment [2].
For `CCOC(=O)c1c(N2CCCCC2)c(C#N)c(=O)n2ccccc12` [Compound S-35, 3-Cyano-1-ethoxycarbonyl-2-piperidino-4H-quinolizin-4-one], the inhibition at 5 µg/mL in experiment [1] came out at 30%; in experiment [2] it was 17%.
Take `CCCOC(=O)c1c(-c2ccccc2)c(C#N)c(=O)n2ccccc12` [Compound S-10, 3-Cyano-2-phenyl-1-propoxycarbonyl-4H-quinolizin-4-one]: the results for the inhibition at 10 µg/mL in experiment [1] and in experiment [2] were 57% and 22%, respectively.
For `N#Cc1c(N2CCN(CC(=O)N3CCOCC3)CC2)c(C(=O)OCCCc2ccccc2)c2ccccn2c1=O` [Compound S-56, 3-Cyano-2-(4-morpholinocarbonylmethylpiperazin-1-yl)-1-(3-phenylpropoxycarbonyl)-4H-quinolizin-4-one], the inhibition at 2.5 µg/mL in experiment [1] came out at 37%; in experiment [2] it was 1%.
For `N#Cc1c(N2CCOCC2)c(C(=O)OCCCc2ccccc2)c2ccccn2c1=O` [Compound S-49, 3-Cyano-2-morpholino-1-(3-phenylpropoxycarbonyl)-4H-quinolizin-4-one] the same measures were 61% and 21%.
As for `N#Cc1c(N2CCCC2)c(C(=O)OCCCc2ccccc2)c2ccccn2c1=O` [Compound S-38, 3-Cyano-1-(3-phenylpropoxycarbonyl)-2-(1-pyrrolidinyl)-4H-quinolizin-4-one], the inhibition at 1 µg/mL in experiment [1] was 68%; in experiment [2] it was 1%.
As to `CCOC(=O)c1c(-c2cc(OC)cc(OC)c2)c(C#N)c(=O)n2ccccc12` [Compound S-29, 3-Cyano-2-(3,5-dimethoxyphenyl)-1-ethoxycarbonyl-4H-quinolizin-4-one], the values for the inhibition at 40 µg/mL in experiment [1] and in experiment [2] were 67% and 17%, respectively.
As for `CCOC(=O)c1c(-c2ccc3c(c2)OCO3)c(C#N)c(=O)n2ccccc12` [Compound S-8, 3-Cyano-1-ethoxycarbonyl-2-(3,4-methylenedioxyphenyl)-4H-quinolizin-4-one], the inhibition at 40 µg/mL in experiment [1] turned out to be 51%; in experiment [2], 5%.
Regarding `CCOC(=O)c1c(-c2cc(OC)c(OC)c(OC)c2)c(C#N)c(=O)n2ccccc12` [Compound S-19, 3-Cyano-1-ethoxycarbonyl-2-(3,4,5-trimethoxyphenyl)-4H-quinolizin-4-one], the inhibition at 20 µg/mL came to 48% in experiment [1] and 8% in experiment [2].
Regarding `N#Cc1c(N2CCN(CCO)CC2)c(C(=O)OCCCc2ccccc2)c2ccccn2c1=O` [Compound S-54, 3-Cyano-2-[4-(2-hydroxyethyl)piperazin-1-yl]-1-(3-phenylpropoxycarbonyl)-4H-quinolizin-4-one], the figures for the inhibition at 5 µg/mL in experiment [1] and in experiment [2] were 59% and 4%, respectively.
`CCOC(=O)c1c(N2CCN(CC(=O)N3CCOCC3)CC2)c(C#N)c(=O)n2ccccc12` [Compound S-55, 3-Cyano-1-ethoxycarbonyl-2-(4-morpholinocarbonylmethylpiperazin-1-yl)-4H-quinolizin-4-one]: the values for the inhibition at 40 µg/mL in experiment [1] and in experiment [2] were 36% and -4%, respectively.
For `CCOC(=O)c1c(-c2ccc(OC)c(O)c2)c(C#N)c(=O)n2ccccc12` [Compound S-33, 3-Cyano-1-ethoxycarbonyl-2-(3-hydroxy-4-methoxyphenyl)-4H-quinolizin-4-one], in that order: 58% and 5%.
As for `CCOC(=O)c1c(-c2ccc(O)c(OC)c2)c(C#N)c(=O)n2ccccc12` [Compound S-32, 3-Cyano-1-ethoxycarbonyl-2-(4-hydroxy-3-methoxyphenyl)-4H-quinolizin-4-one], the inhibition at 20 µg/mL was 53% in experiment [1] and -9% in experiment [2].
Turning to `CCOC(=O)c1c(-c2ccc(OC)cc2)c(C#N)c(=O)n2ccccc12` [Compound S-6, 3-Cyano-1-ethoxycarbonyl-2-(4-methoxyphenyl)-4-quinolizin-4-one], the results for the inhibition at 10 µg/mL in experiment [1] and in experiment [2] were 65% and 37%, respectively.
`N#Cc1c(N2CCC(Cc3ccccc3)CC2)c(C(=O)OCCCc2ccccc2)c2ccccn2c1=O` [Compound S-45, 2-(4-Benzylpiperidino)-3-cyano-1-(3-phenylpropoxycarbonyl)-4H-quinolizin-4-one]: the inhibition at 1 µg/mL in experiment [1] stood at 55%; in experiment [2], 16%.
As for `CCOC(=O)c1c(-c2ccc(C)c(F)c2)c(C#N)c(=O)n2ccccc12` [Compound S-13, 3-Cyano-1-ethoxycarbonyl-2-(3-fluoro-4-methylphenyl)-4H-quinolizin-4-one], the inhibition at 40 µg/mL worked out at 64% in experiment [1] and 26% in experiment [2].
For `CCOC(=O)c1c(N2CCN(C=O)CC2)c(C#N)c(=O)n2ccccc12` [Compound S-40, 3-Cyano-1-ethoxycarbonyl-2-(4-formylpiperazin-1-yl)-4H-quinolizin-4-one], in that order: 34% and 9%.
As to `CCOC(=O)c1c(-c2ccccc2)c(C#N)c(=O)n2ccccc12` [Compound S-1, 3-Cyano-1-ethoxycarbonyl-2-phenyl-4H-quinolizin-4-one], the results for the inhibition at 5 µg/mL in experiment [1] and in experiment [2] were 47% and 1%, respectively.
As to `CN1CCN(c2c(C#N)c(=O)n3ccccc3c2C(=O)OCCCc2ccccc2)CC1` [Compound S-43, 3-Cyano-2-(4-methylpiperazin-1-yl)-1-(3-phenylpropoxycarbonyl)-4H-quinolizin-4-one], the values for the inhibition at 2.5 µg/mL in experiment [1] and in experiment [2] were 65% and 1%, respectively.
`CCOC(=O)c1c(N2CCN(C)CC2)c(C#N)c(=O)n2ccccc12` [Compound S-42, 3-Cyano-1-ethoxycarbonyl-2-(4-methylpiperazin-1-yl)-4H-quinolizin-4-one]: the inhibition at 40 µg/mL in experiment [1] is 63%; in experiment [2] it was 19%.
Turning to `N#Cc1c(N2CCN(C=O)CC2)c(C(=O)OCCCc2ccccc2)c2ccccn2c1=O` [Compound S-41, 3-Cyano-2-(4-formylpiperazin-1-yl)-1-(3-phenylpropoxycarbonyl)-4H-quinolizin-4-one], the inhibition at 2.5 µg/mL in experiment [1] amounted to 75%; in experiment [2], 9%.
In the case of `CCOC(=O)c1c(-c2ccc(O)c(O)c2)c(C#N)c(=O)n2ccccc12` [Compound S-31, 3-Cyano-2-(3,4-dihydroxyphenyl)-1-ethoxycarbonyl-4H-quinolizin-4-one], the inhibition at 20 µg/mL in experiment [1] is 54%; in experiment [2], -7%.
Regarding `CCOC(=O)c1c(-c2cccc(OC)c2OC)c(C#N)c(=O)n2ccccc12` [Compound S-28, 3-Cyano-2-(2,3-dimethoxyphenyl)-1-ethoxycarbonyl-4H-quinolizin-4-one], the inhibition at 2.5 µg/mL in experiment [1] was determined as 64%; in experiment [2], 14%.
On to `CCOC(=O)c1c(-c2ccc([N+](=O)[O-])cc2)c(C#N)c(=O)n2ccccc12` [Compound S-20, 3-Cyano-1-ethoxycarbonyl-2-(4-nitrophenyl)-4H-quinolizin-4-one], for which the inhibition at 10 µg/mL in experiment [1] stood at 49%; in experiment [2], 9%.
For `CCOC(=O)c1c(-c2ccc(Cl)cc2Cl)c(C#N)c(=O)n2ccccc12` [Compound S-9, 3-Cyano-2-(2,4-dichlorophenyl)-1-ethoxycarbonyl-4H-quinolizin-4-one], the inhibition at 5 µg/mL in experiment [1] turned out to be 64%; in experiment [2] it was 32%.
For `N#Cc1c(N2CCCCC2)c(C(=O)OCCCc2ccccc2)c2ccccn2c1=O` [Compound S-36, 3-Cyano-1-(3-phenylpropoxycarbonyl)-2-piperidino-4H-quinolizin-4-one] the same measures were 39% and -4%.
For the compound `COC(=O)c1c(-c2ccccc2)c(C#N)c(=O)n2ccccc12` [Compound S-11, 3-Cyano-1-methoxycarbonyl-2-phenyl-4H-quinolizin-4-one], the inhibition at 40 µg/mL stood at 46% in experiment [1] and 19% in experiment [2].
